Measurements reported in ChEMBL document CHEMBL3507680, “University of Dundee, Gates Library screen for HepG2 cell viability”.

Assay: Human HepG2 cell viability assay in 384 well format
Type: toxicity, cell-based
Set-up: dose 125 nL, time 70.5 hour; concentration not given beside the values
Settings: HepG2 cells, read-out: Inhibition

| SMILES | cytotoxicity at 70.5 h [%] |
| --- | --- |
| COC[C@]12COC[C@H]1CN(C(=O)c1ccc(F)cc1C)C2 | 0.0363 |
| O=C(Cc1ccc2c(c1)CCO2)Nc1ccc(-n2cncn2)nc1 | 16.4 |
| COc1ccccc1NCC(=O)NCc1ccc(-c2ccn[nH]2)cc1 | -4.94 |
| CCOC(=O)N(C)C1CCN(Cc2csc(C)n2)CC1 | 2.22 |
| Cc1cnn(CC2CN(CCS(C)(=O)=O)CCO2)c1 (stereo unspecified) | -4.67 |
| CC(=O)Nc1nc(SCc2ccc3c(c2)OCO3)ns1 | -6.56 |
| CO[C@H]1CCN(Cc2cccc(C)n2)[C@@H]2CN(Cc3cccnc3)C[C@H]12 | 1.87 |
| COCCN1CCC2(COCc3cnc(N(C)C)nc32)C1 (stereo unspecified) | -2.9 |
| CN(CCc1cn[nH]c1)C(=O)CCc1ccc(Cl)cc1 | -0.186 |
| O=S(=O)(NCCCn1cncn1)c1ccc2c(c1)CCC2 | -5.6 |
| Cc1ccccc1OCC1CCCN(C(=O)CN(C)C2CCNCC2)C1 (stereo unspecified) | -4.15 |
| Cc1nc(C)n(CC2CCCCN2CC(=O)NC2CCOCC2)n1 (stereo unspecified) | -5.93 |
| Cc1cccc2nc(CNC(=O)N3CCC(OCC4CC4)CC3)cn12 | 24.4 |
| O=C1CC[C@]2(CC[C@@H](NCc3ccsc3)CC2)N1Cc1ccccc1 | -3.82 |
| O=C(c1cc(C2CCCCC2)no1)N1C[C@H]2C[C@H](O)C[C@H]2C1 | -4.06 |
| COCCN1CCC(CNc2nccc(-c3cnn(C)c3)n2)CC1 | -3.27 |
| CCOc1cccc(CNc2ccccc2C(=O)OC)c1O | 3.64 |
| CCS(=O)(=O)N1C[C@@H]2COC[C@@H](Cc3nc(C)no3)[C@@H]2C1 | -2.03 |
| CNS(=O)(=O)CC(=O)NCc1cc2c(s1)CCC(C)(C)C2 | -1.59 |
| CS(=O)(=O)c1snnc1C1CCN(Cc2cccnc2)CC1 | 8.4 |
| CCc1cnc(NC2CCc3c(ccc(=O)n3C)C2)nc1 (stereo unspecified) | -5.8 |
| Fc1ccc(-c2nc(CNC3CCc4ncnn4C3)co2)cc1 (stereo unspecified) | -4.87 |
| O=C(CCC(F)(F)F)NCC1CCCS1 (stereo unspecified) | -6.67 |

| SMILES | cytotoxicity at 70.5 h [%] |
| --- | --- |
| Cc1c(Cl)cccc1S(=O)(=O)NCC(O)c1cccn1C (stereo unspecified) | -3.24 |
| CC(C)CNc1c(NCc2ccco2)c(=O)c1=O | -11.5 |
| Cc1cnn(CCNCC(=O)NCCOc2ccccc2)c1 | 39.9 |
| Cc1ccc(CNc2cnn(CC(F)F)c2)cc1C | -0.638 |
| CCC1CCCCN1C(=O)Cn1cnc(C#N)n1 (stereo unspecified) | -4.5 |
| Cc1nnc(C(C)NCC2(c3c(F)cccc3F)CCCC2)o1 (stereo unspecified) | -2.47 |
| Cc1cc(CN2CCN(CCOc3cccc(C#N)c3)CC2)no1 | 5.03 |
| CCOCC(=O)N1CCC(c2cc3ncccc3c(O)n2)CC1 | -6.58 |
| CC(C)c1nc2n(n1)CC(NCc1nc(-c3ccccn3)no1)CC2 (stereo unspecified) | -7.49 |
| CC(=O)N1CCO[C@@H]2CN(S(=O)(=O)C3CC3)CC[C@@H]2C1 | -0.0787 |
| COCCN(Cc1ccccn1)C(=O)CC1OCCc2sccc21 (stereo unspecified) | -9.62 |
| O=C(NCCc1cccs1)N1CCCC1CCCO (stereo unspecified) | -9.42 |
| O=C(c1ccc2c(c1)OCCO2)N1CCCC(n2ccnc2)C1 (stereo unspecified) | -4.86 |
| CSCCC(=O)NS(=O)(=O)c1ccc2c(c1)OCCO2 | -7.91 |
| CC(C)(C)n1cc(C2=CCN(CCNC(=O)c3ccccc3)CC2)cn1 | -5.4 |
| c1cncc(-c2noc(CNC3CCc4ncnn4C3)n2)c1 (stereo unspecified) | -5.95 |
| CN(Cc1ccco1)C(=O)Nc1ccc(=O)n(C)c1 | 0.639 |
| Cc1cccnc1CC(C)NC1CCSCC1 (stereo unspecified) | -3.02 |
| Cc1cc(-c2ccncc2)ccc1OCC(N)=O | -5 |
| CCOC(=O)[C@H]1[C@@H](O)C(=O)N(C)C12CCN(C(=O)CC1CCCC1)CC2 | -3.01 |
| Cc1nn(C)c2ncnc(NCC(O)CN3CCCCC3)c12 (stereo unspecified) | 21.5 |
| CCc1nc(CNC2CCN(c3ccc(OC)cc3)CC2)cs1 | -5.26 |
| CCOCc1cccc(S(=O)(=O)Nc2ccn(CC)n2)c1 | -0.0962 |
